In patent US20250090699A1, “FAP TARGETING CYCLIC PEPTIDES AND CONJUGATES THEREOF” (Novartis AG, priority 2023, published 2025) one finds Kd and IC50 data, which are given here for 7 compounds.

Experiment [1] concerns the target T1, human FAP (Homo sapiens, UniProt Q12884).
T1 construct: the biotinylated His, Avi tag, human FAP (26-760, FAP-H82Q6); His; Avi tag (biotinylated); purchased AcroBiosystems FAP-H82Q6
T1 sequence (Q12884 26-760): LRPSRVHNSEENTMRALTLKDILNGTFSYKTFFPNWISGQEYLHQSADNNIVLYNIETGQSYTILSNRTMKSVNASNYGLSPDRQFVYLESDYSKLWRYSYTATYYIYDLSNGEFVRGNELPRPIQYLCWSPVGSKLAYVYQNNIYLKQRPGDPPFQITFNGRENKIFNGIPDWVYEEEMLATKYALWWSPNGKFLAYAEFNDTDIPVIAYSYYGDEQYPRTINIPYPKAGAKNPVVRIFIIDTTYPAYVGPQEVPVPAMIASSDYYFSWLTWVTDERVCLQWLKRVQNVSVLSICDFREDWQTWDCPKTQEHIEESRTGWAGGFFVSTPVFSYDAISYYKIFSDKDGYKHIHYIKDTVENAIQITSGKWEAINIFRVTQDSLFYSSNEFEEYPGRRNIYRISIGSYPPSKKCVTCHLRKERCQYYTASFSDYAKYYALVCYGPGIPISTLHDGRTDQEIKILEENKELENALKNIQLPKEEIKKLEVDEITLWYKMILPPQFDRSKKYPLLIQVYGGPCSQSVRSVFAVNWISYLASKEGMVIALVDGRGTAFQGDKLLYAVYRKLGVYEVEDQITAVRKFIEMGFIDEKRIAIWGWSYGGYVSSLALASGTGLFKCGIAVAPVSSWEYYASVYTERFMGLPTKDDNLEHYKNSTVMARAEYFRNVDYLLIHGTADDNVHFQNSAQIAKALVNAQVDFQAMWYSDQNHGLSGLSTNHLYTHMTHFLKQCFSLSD
The experiment in a line: Surface plasmon resonance (SPR) for peptide affinity, human FAP. The class given is binding. The conditions noted are these: read-out: h. FAP, SPR, KD. On the procedure:
Peptide affinities (KD) were determined by SPR using a Biacore™ 8K device (Cytiva) towards the following proteins: biotinylated His, Avi tag, human FAP (26-760, FAP-H82Q6), biotinylated His, Avi tag, mouse FAP (26-761, FAP-M82Q5), His tag, human DPP4 (34-766, DP4-H82E3), all purchased from AcroBiosystems and His tag, mouse DPP4 (29-760, 954-SE) from R&D Systems. The FAP proteins and their homologous were diluted to a concentration of 2 μg/mL into acetate buffer pH 5.5, then immobilized onto a CM5 sensorchip (Cytiva, BR-1005-30) to reach a response around 2000 R U. The running buffer HBS-EP+pH 7.6 (20× from Teknova CAT. No: H8022) contained 10 mM HEPES pH 7.6, 150 mM NaCl, 3 mM EDTA, 0.05% Tween20 and 2% DMSO. Experiments were carried out at 25° C. using a flow rate of 30 μL/min. Compounds were tested in single cycle kinetic mode at 8 different concentrations. Curve fitting was performed using the Biacore™ 8K evaluation software. The sensorgrams were fitted by applying a 1:1 binding model to calculate kinetic rate constants and equilibrium dissociation constants (KD).
For this assay, the setup had the same conditions (flow rate, running buffer, peptide dilution) as described above for the CM5 method. The oligo CAP reagent obtained in the CAPture Kit (Ref. 28920234) was 1/5 diluted into running buffer and used with a contact time of 300 s at a flow rate of 2 μL/min. The human and mouse FAP constructs described above were used (from AcroBiosystems or produced in house). The FAP proteins were diluted to a concentration of 2 μg/mL into acetate pH 5.5, 0.05% Tween20 and used with a contact time of 600 s at a flow rate of 10 μL/min. The peptides were tested with an association time of 280 s followed by a dissociation time of 3000 s at a flow rate of 30 μL/min. The regeneration was done using the regeneration solution (8 M guanidine-HCl, 1 M NaOH) as obtained with a contact time of 270 s at a flow rate of 10 μL/min. […] The compounds marked with an asterisk were tested against human and mouse DDP4.

Experiment [2] addresses T2, mouse FAP (Mus musculus, UniProt P97321).
T2 construct: biotinylated His, Avi tag, mouse FAP (26-761, FAP-M82Q5); His; Avi tag (biotinylated); purchased AcroBiosystems FAP-M82Q5
T2 sequence (P97321 26-761): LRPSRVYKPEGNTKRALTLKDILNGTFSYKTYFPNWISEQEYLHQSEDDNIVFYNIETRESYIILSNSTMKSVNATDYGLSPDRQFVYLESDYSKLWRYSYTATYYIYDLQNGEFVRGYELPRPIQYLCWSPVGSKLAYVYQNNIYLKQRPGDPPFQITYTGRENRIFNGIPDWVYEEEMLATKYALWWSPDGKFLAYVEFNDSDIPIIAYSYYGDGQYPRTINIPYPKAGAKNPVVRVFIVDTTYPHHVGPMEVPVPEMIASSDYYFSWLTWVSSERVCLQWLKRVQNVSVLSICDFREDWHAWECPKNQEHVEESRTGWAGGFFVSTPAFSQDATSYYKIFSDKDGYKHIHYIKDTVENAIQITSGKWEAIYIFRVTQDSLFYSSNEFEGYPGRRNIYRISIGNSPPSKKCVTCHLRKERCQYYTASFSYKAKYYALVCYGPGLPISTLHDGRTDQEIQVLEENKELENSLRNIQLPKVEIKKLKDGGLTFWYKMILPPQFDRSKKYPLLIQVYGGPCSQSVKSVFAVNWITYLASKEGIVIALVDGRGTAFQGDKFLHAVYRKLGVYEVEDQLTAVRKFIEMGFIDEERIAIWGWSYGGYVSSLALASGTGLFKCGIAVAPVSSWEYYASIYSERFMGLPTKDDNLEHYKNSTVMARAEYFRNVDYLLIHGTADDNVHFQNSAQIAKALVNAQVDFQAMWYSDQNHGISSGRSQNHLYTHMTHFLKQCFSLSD
The experiment in a line: Surface plasmon resonance (SPR) for peptide affinity, mouse FAP. Type of experiment: binding. The essentials:
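KD values come from a 1:1 kinetic fit of single-cycle SPR data: 8 peptide concentrations, 25 °C, 30 μL/min, HEPES-buffered saline pH 7.6 with 2% DMSO. Targets were His/Avi-tagged human (26-760) or mouse (26-761) FAP, amine-coupled to CM5 or held on a CAPture chip.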

Experiment [3] has as its target T1, human FAP. Nature of the experiment: Enzymatic FAP competition assay (Z-Gly-Pro-AMC fluorescence), human FAP. The following applies: read-out: h. FAP, Enz., IC50. Type of experiment: biochemical. The procedure, abridged:
(§1)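 IC50 values come from curve fitting of duplicate % inhibition data on AMC fluorescence (ex 380, em 460 nm) after 4 h at 22-24° C with 50 μM Z-Gly-Pro-AMC. Beforehand, peptides up to 1 μM (14 levels) sat 24 h with 0.01 nM human (26-760) or mouse (26-761) tagged FAP in phosphate buffer pH 7.5, NaCl, Tween20, 1% DMSO.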

The target of experiment [4] is T2, mouse FAP. The experiment in a line: Enzymatic FAP competition assay (Z-Gly-Pro-AMC fluorescence), mouse FAP. The class given is biochemical. The conditions noted are these: read-out: m. FAP, Enz., IC50. The essentials:
as §1

Structures can show the parent of a compound that is named as a salt. Starred links: 1 amine or outer side, 2 acyl side, 3 side chain; linkers in the order of their positions; H or OH if unused. Non-standard residues stand in square brackets, D forms with d. Residues, ends and D or L forms follow the SMILES beside them. Groups on a side chain read outwards from the residue. *: point of attachment. DOTA = O=C(O)CN1CCN(CC(=O)O)CCN(CC(=O)*)CCN(CC(=O)O)CC1; Phe(4-CH2NH2) = NCc1ccc(C[C@H](N)C(=O)O)cc1; Piperazinyl(4-CH2COOH) = O=C(O)CN1CCN(*)CC1; AEF = NCCOc1ccc(C[C@H](N)C(=O)O)cc1; NMeF = CN[C@@H](Cc1ccccc1)C(=O)O; Aoc(2) = CCCCCC[C@H](N)C(=O)O; Ahp(2) = CCCCC[C@H](N)C(=O)O; hSer = N[C@@H](CCO)C(=O)O; AEEA = NCCOCCOCC(=O)O; CO = O=C([*:1])[*:2]; Propyl = CCC* A value given as a limit tells only on which side of the number the result lay.

For the compound `CCCOCC[C@@H]1NC(=O)[C@H](Cc2ccc(CNC(=O)COCCOCCN)cc2)NC(=O)[C@H](Cc2ccccc2)N(C)C(=O)CNC(=O)CNC(=O)[C@H]2CCCN2C(=O)[C@H](CC(=O)O)NC(=O)[C@H](CCCCNC(=O)N2CCN(CC(=O)O)CC2)NC(=O)CNC(=O)[C@H](Cc2c[nH]c3ccccc23)NC1=O` [Example A2, 2-((9S,12S,15S,18S,24S,27S,32aR)-18-((1H-indol-3-yl)methyl)-12-(4-((2-(2-(2-aminoethoxy)ethoxy)acetamido)methyl)benzyl)-9-benzyl-24-(4-(4-(carboxymethyl)piperazine-1-carboxamido)butyl)-8-methyl-1,4,7,10,13,16,19,22,25,28-decaoxo-15-(2-propoxyethyl)dotriacontahydropyrrolo[1,2-a][1,4,7,10,13,16,19,22,25,28]decaazacyclotriacontin-27-yl)acetic acid TFA salt] (cyclo(D[dP]GG[NMeF][Phe(4-CH2NH2)](AEEA)[hSer](Propyl)WGK([CO-Piperazinyl(4-CH2COOH)]))), the equilibrium dissociation constant (Kd) on human FAP [1] was < 0.011 nM; at mouse FAP [2], < 0.023 nM. In addition, the values for the IC50 on human FAP [3] and on mouse FAP [4] were 0.012 nM and 0.047 nM, respectively.
The corresponding values for `CCCCC[C@@H]1NC(=O)[C@H](Cc2ccc(O)cc2)NC(=O)[C@H](Cc2ccccc2)N(C)C(=O)CNC(=O)CNC(=O)[C@H]2CCCN2C(=O)[C@H](CC(=O)O)NC(=O)[C@H](Cc2ccc(OC)cc2)NC(=O)CNC(=O)[C@H](Cc2c[nH]c3ccccc23)NC1=O` [Example A13, Gly-Gly-NMePhe-Tyr-Ahp-Trp-Gly-F(4OMe)-Asp-D-Pro] (cyclo([Ahp(2)]WGY(Me)D[dP]GG[NMeF]Y)) are < 0.005 nM, 0.011 nM, 0.005 nM and 0.011 nM.
Regarding `CCCCC[C@@H]1NC(=O)[C@H](Cc2ccc(OCCN)cc2)NC(=O)[C@H](Cc2ccccc2)N(C)C(=O)CNC(=O)[C@@H]2CCCN2C(=O)[C@H]2CCCN2C(=O)[C@H](CC(=O)O)NC(=O)[C@H](Cc2ccc(O)cc2)NC(=O)CNC(=O)[C@H](Cc2c[nH]c3ccccc23)NC1=O` [Example A32, Pro-Gly-NMePhe-F(4OEtNH2)-Ahp-Trp-Gly-Tyr-Asp-D-Pro] (cyclo(G[NMeF][AEF][Ahp(2)]WGYD[dP]P)), the results for the Kd at human FAP [1] and at mouse FAP [2] were 0.27 nM and 0.55 nM, respectively. Also, the IC50 was 0.239 nM on human FAP [3] and 1.2 nM on mouse FAP [4].
The corresponding values for `CCCCC[C@@H]1NC(=O)[C@H](Cc2ccc(O)cc2)NC(=O)[C@H](Cc2ccccc2)N(C)C(=O)CNC(=O)[C@@H]2CCCN2C(=O)[C@H]2CCCN2C(=O)[C@H](CC(=O)O)NC(=O)[C@H](Cc2ccc(O)cc2)NC(=O)CNC(=O)[C@H](Cc2c[nH]c3ccccc23)NC1=O` [Example A51, 2-((6S,9S,15S,18S,21S,24S,29aS,34aR)-15-((1H-indol-3-yl)methyl)-24-benzyl-9,21-bis(4-hydroxybenzyl)-25-methyl-5,8,11,14,17,20,23,26,29,34-decaoxo-18-pentyldotriacontahydro-1H,5H-dipyrrolo[1,2-a:1′,2′-b1][1,4,7,10,13,16,19,22,25,28]decaazacyclotriacontin-6-yl)acetic acid] (cyclo(G[NMeF]Y[Ahp(2)]WGYD[dP]P)) are 0.163 nM, 0.185 nM, 0.117 nM and 0.4 nM.
On the same counts, the results for `CCCCC[C@@H]1NC(=O)[C@H](Cc2ccc(O)cc2)NC(=O)[C@H](Cc2ccccc2)N(C)C(=O)CNC(=O)CNC(=O)[C@H]2CCCN2C(=O)[C@H](CC(=O)O)NC(=O)[C@H](Cc2ccc(O)cc2)NC(=O)CNC(=O)[C@H](Cc2c[nH]c3ccccc23)NC1=O` [Example A52, Gly-Gly-NMePhe-Tyr-Ahp-Trp-Gly-Tyr-Asp-D-Pro] (cyclo([Ahp(2)]WGYD[dP]GG[NMeF]Y)) are 0.118 nM, 0.36 nM, 0.104 nM and 0.737 nM.
On the same counts, the results for `CCCCCC[C@@H]1NC(=O)[C@H](Cc2ccc(CNC(=O)COCCOCCNC(=O)CN3CCN(CC(=O)O)CCN(CC(=O)O)CCN(CC(=O)O)CC3)cc2)NC(=O)[C@H](Cc2ccccc2)N(C)C(=O)CNC(=O)CNC(=O)[C@H]2CCCN2C(=O)[C@H](CC(=O)O)NC(=O)[C@H](CCCCNC(=O)N2CCN(CC(=O)O)CC2)NC(=O)CNC(=O)[C@H](Cc2c[nH]c3ccccc23)NC1=O` [Example B1, Gly-Gly-NMePhe-F(4amPEG2NHDOTA)-Aoc-Trp-Gly-K(COpipzaa)-Asp-D-Pro] (cyclo(GG[NMeF][Phe(4-CH2NH2)]([AEEA-DOTA])[Aoc(2)]WGK([CO-Piperazinyl(4-CH2COOH)])D[dP])) are < 0.011 nM, < 0.018 nM, 0.005 nM and 0.013 nM.
For the compound `CCCOCC[C@@H]1NC(=O)[C@H](Cc2ccc(CNC(=O)COCCOCCNC(=O)CN3CCN(CC(=O)O)CCN(CC(=O)O)CCN(CC(=O)O)CC3)cc2)NC(=O)[C@H](Cc2ccccc2)N(C)C(=O)CNC(=O)CNC(=O)[C@H]2CCCN2C(=O)[C@H](CC(=O)O)NC(=O)[C@H](CCCCNC(=O)N2CCN(CC(=O)O)CC2)NC(=O)CNC(=O)[C@H](Cc2c[nH]c3ccccc23)NC1=O` [Example B2, Gly-Gly-NMePhe-F(4ampEG2NHDOTA)-hS(Pr)-Trp-Gly-K(COpipzaa)-Asp-D-Pro] (cyclo(D[dP]GG[NMeF][Phe(4-CH2NH2)]([AEEA-DOTA])[hSer](Propyl)WGK([CO-Piperazinyl(4-CH2COOH)]))), the dissociation constant Kd at human FAP [1] was < 0.013 nM; at mouse FAP [2] it was < 0.022 nM. Further, the concentration for half-maximal inhibition (IC50) on human FAP [3] was found to be 0.007 nM; at mouse FAP [4], 0.018 nM.
